Here are results for six compounds from paper PMC9250296 (Journal of the American Chemical Society, 2021).

Data set [1] can be described thus: HeLa cell lysate stability assay. The settings on record: for half-life / remaining at 4 h: human; for primary degradation products in HeLa cell lysate: after 24 hours, mass spectrometry.
A short description of the next data set: CD thermal melts. The settings on record: CD thermal melt, Trp-Trp exciton coupling band at 228 nm, aqueous solution. The data set is classed as physicochemical.
Another data set is described as follows: in vitro. The settings on record: human, cells or culture medium.

Numbered stars: 1 amine (or outer) side, 2 acyl side, 3 side chain; on linkers, the order of the positions; unused ones are H or OH. Bridge positions count the residues as written; N and C are the ends. Square brackets hold non-standard residues; d marks the D form. Peptide text beside a SMILES is read from it. * marks the point of attachment. X1 = O=C([C@@H]1C[C@@H](SCc2cccc(C[*:3])c2)CN1[*:1])[*:2]; X2 = C=CCS[C@@H]1C[C@@H](C(=O)[*:2])N([*:1])C1; Ac3c = NC1(C(=O)O)CC1; Allyl = C=CC*

The term half-life denotes the time in which the quantity being followed falls by half. A lower half-life goes with rapid decline. In data set [1], `CC(=O)N[C@H](C(=O)N[C@@H](Cc1c[nH]c2ccccc12)C(=O)N[C@H](Cc1ccc(O)cc1)C(=O)N[C@H]1CSCc2cccc(c2)CS[C@@H]2C[C@@H](C(=O)NCC(=O)N[C@@H](Cc3c[nH]c4ccccc34)C(=O)N[C@H](C(N)=O)[C@@H](C)O)N(C2)C(=O)CNC(=O)C2(CC2)NC(=O)[C@H]2CCCN2C(=O)[C@H]([C@@H](C)O)NC1=O)[C@@H](C)O` [Δ4MP-m] (Ac-TW[dY]CT[dP][Ac3c]G[X1]GWT-NH2; thioether 4-9) had a half-life of 21 h.
A word on the share remaining: it is what is left of the initial amount, in per cent. For the compound `C[C@@H](O)[C@H](NC(=O)[C@H](Cc1c[nH]c2ccccc12)NC(=O)CNC(=O)[C@@H]1C[C@@H]2CN1C(=O)CNC(=O)C1(CC1)NC(=O)[C@H]1CCCN1C(=O)[C@H]([C@@H](C)O)NC(=O)[C@@H](NC(=O)[C@@H](Cc1ccc(O)cc1)NC(=O)[C@H](Cc1c[nH]c3ccccc13)NC(=O)[C@@H](NC(=O)[C@@H](N)CCCCN)[C@@H](C)O)CSCc1cccc(c1)CS2)C(=O)N[C@@H](CCC(=O)O)C(=O)O` [4MP-m] (H-KTW[dY]CT[dP][Ac3c]G[X1]GWTE-OH; thioether 5-10; N-terminus and C-terminus assumed), in “CD thermal melts”, the “T50 (temperature at which the peptide retains 50% structure)” value amounted to 58.5 °C. Also, in data set [1], the “primary degradation products in HeLa cell lysate” value is listed as “intact except for the two N-terminal amino acids” and the fraction remaining at 4 h is roughly 7%.
The corresponding values for `C=CCSC[C@H](NC(=O)[C@@H](Cc1ccc(O)cc1)NC(=O)[C@H](Cc1c[nH]c2ccccc12)NC(=O)[C@@H](NC(=O)[C@@H](N)CCCCN)[C@@H](C)O)C(=O)N[C@H](C(=O)N1CCC[C@@H]1C(=O)NC1(C(=O)NCC(=O)N2C[C@H](SCC=C)C[C@H]2C(=O)NCC(=O)N[C@@H](Cc2c[nH]c3ccccc23)C(=O)N[C@H](C(=O)N[C@@H](CCC(=O)O)C(=O)O)[C@@H](C)O)CC1)[C@@H](C)O` [4MP-a] (H-KTW[dY]C(Allyl)T[dP][Ac3c]G[X2]GWTE-OH; N-terminus and C-terminus assumed) are 50.8 °C, “intact except for the two N-terminal amino acids” and roughly 22%.
In turn, `C=CCSC[C@H](NC(=O)[C@@H](Cc1ccc(O)cc1)NC(=O)[C@H](Cc1c[nH]c2ccccc12)NC(=O)[C@@H](NC(C)=O)[C@@H](C)O)C(=O)N[C@H](C(=O)N1CCC[C@@H]1C(=O)NC1(C(=O)NCC(=O)N2C[C@H](SCC=C)C[C@H]2C(=O)NCC(=O)N[C@@H](Cc2c[nH]c3ccccc23)C(=O)N[C@H](C(N)=O)[C@@H](C)O)CC1)[C@@H](C)O` [Δ4MP-a] (Ac-TW[dY]C(Allyl)T[dP][Ac3c]G[X2]GWT-NH2; N-terminus and C-terminus assumed) gave a half-life in data set [1] of 30 h.
The compound `CC(=O)N[C@H](C(=O)N[C@@H](Cc1c[nH]c2ccccc12)C(=O)N[C@@H](CC(N)=O)C(=O)N1CCC[C@H]1C(=O)N[C@@H](C)C(=O)N[C@H](C(=O)NCC(=O)N[C@@H](CCCCN)C(=O)N[C@@H](Cc1c[nH]c2ccccc12)C(=O)N[C@H](C(N)=O)[C@@H](C)O)[C@@H](C)O)[C@@H](C)O` [ΔHP7] (Ac-TWNPATGKWT-NH2; N-terminus and C-terminus assumed) yielded a fraction remaining at 2 h in the data set “in vitro” of roughly 19%.
Regarding `C[C@H](NC(=O)[C@@H]1CCCN1C(=O)[C@H](CC(N)=O)NC(=O)[C@H](Cc1c[nH]c2ccccc12)NC(=O)[C@@H](NC(=O)[C@@H](N)CCCCN)[C@@H](C)O)C(=O)N[C@H](C(=O)NCC(=O)N[C@@H](CCCCN)C(=O)N[C@@H](Cc1c[nH]c2ccccc12)C(=O)N[C@H](C(=O)N[C@@H](CCC(=O)O)C(=O)O)[C@@H](C)O)[C@@H](C)O` [HP7, reference compound] (H-KTWNPATGKWTE-OH; N-terminus and C-terminus assumed), the “T50 (temperature at which the peptide retains 50% structure)” value in “CD thermal melts” is 58.7 °C. In addition, the fraction remaining at 2 h in “in vitro” is roughly 0%.
